Earlier results as cited in patent US10350179B2, “Combination comprising palmitoylethanolamide (PEA) and lycopene for use in the treatment of inflammatory diseases” (Raffaele MIGLIACCIO, priority 2015, dated 2019).

Conditions: dietary intake, background statement

CC(C)=CCC/C(C)=C/C=C/C(C)=C/C=C/C(C)=C/C=C/C=C(C)/C=C/C=C(C)/C=C/C=C(\C)CCC=C(C)C [Lycopene]
Concentration in human plasma: 220 to 1060 nM
